{
  "source": "patent US20150315202A1",
  "about": "“CHLORIN DERIVATIVE USEFUL IN PHOTODYNAMIC THERAPY AND DIAGNOSIS” (RMW CHO GROUP LIMITED, priority 2012, published 2015)",
  "key": {"[1]": {"tested_on": "non-small cell lung cancer with metastases in the lymph nodes and bones", "assay": "In vivo studies Example 8: patient, oral chlorin e4 sodium plus laser and LED light", "parameters": "species or system human", "procedure": "(§1) A patient with non-small cell lung cancer with metastases in the lymph nodes and bones, was treated successfully. The treatment consisted of two courses. For each course, five doses of 62.5-187.5 mg chlorin e4 sodium were administered orally over the course of eight days. About 24 hours after each oral dose of chlorin e4 sodium, the patient was treated with laser and LED light having a wavelength of 660 nm and 760 nm."}, "[2]": {"tested_on": "advanced non-small cell lung cancer", "assay": "Clinical study with patients suffering from advanced non-small cell lung cancer", "format": "in vivo, human", "procedure": "Through pathology or cytology diagnosis, 66 advanced non-small cell lung cancer patients were selected and randomly divided into two groups. Group A had 32 patients who were treated with chlorin e4 sodium. Group B had 34 patients who were treated with both chemotherapy and radiotherapy.\nFor group A, chlorin e4 sodium was administered at a dosage of 2 mg per kilogram of body weight, with two thirds administered by inhalation and one third administered orally. After the irradiation target(s) had been determined, an optical fibre for laser treatment purposes was guided into the lung tumor(s) via an interstitial procedure. Irradiation light intensity was 200 J/cm^2, irradiation power was 1,000 mW, and irradiation lasted for eight to ten minutes. Laser irradiation into the tumor was two to five centimeters in depth. Irradiation was either performed phase by phase (sub-paragraph treatment) based on tumor size or performed repeatedly.\nFor group B, for the radiotherapy, a 15 MV X-ray radiation therapy irradiation field covered primary lung tumor lesion(s) and mediastinal lymphatic drainage area, with a dosage of 65-70 Gy, administered on every first day in a week of radiotherapy. For the chemotherapy, 20 mg cisplatin was administered by intravenous application."}, "[3]": {"tested_on": "advanced pancreatic cancer with metastases in the liver", "assay": "In vivo studies Example 7: patient, oral chlorin e4 sodium plus laser and LED light", "parameters": "species or system human", "procedure": "as §1, with “advanced pancreatic” for “non-small cell lung”, “liver,” for “lymph nodes and bones,”, “successfully. Prior to treatment the patient was in poor health generally and suffering from extreme weight loss, pain and other typical symptoms of advanced pancreatic cancer.” for “successfully.”, “three” for “two”"}, "lung cancer": {"tested_on": "lung cancer", "assay": "In vivo studies Example 6: patient, oral chlorin e4 sodium plus laser and LED light", "parameters": "species or system human", "conditions": "immediately after the last of three courses", "procedure": "as §1, with “with” for “with non-small cell”, “cancer” for “cancer with metastases in the lymph nodes and bones,”, “three” for “two”, “24-48” for “About 24”"}, "[4]": {"assay": "Fluorescence spectra and fluorescence quantum yield (reference TPPS)", "format": "physicochemical", "procedure": "Absorption spectra were recorded using computerized spectrophotometers Hitachi 3400 (Japan) and SF-2000 (Russia). Fluorescence spectra were measured with a computerized spectrofluorimeter Perkin-Elmer MPF-44B. 10 mm wide quartz cuvettes were used for absorption and fluorescence measurements. Fluorescence was detected at a right angle to the excitation beam. The spectral bandwidth of the monochromator was 3 nm. […] The fluorescence quantum yields (ΦF) were determined using as a reference, solutions of TPPS (m-tetrakis(p-sulfonatophenyl)porphine) in ethanol. According to the literature, the most likely fluorescence quantum yield of TPPS in air-saturated water and ethanol is equal to 0.08 (K. Kalyanasundaram and M. Neumann-Spallart, Photophysical and redox properties of water soluble porphyrins in aqueous media, J. Phys. Chem., 1982, 86, 5163-5169; and A. T. Gradyushko, A. N. Sevchenko, K. N. Solovyov and M. P. Tsvirko, Energetics of photophysical processes in chlorophyll-like molecules, Photochem. Photobiol., 1970, 11, 387-400). The fluorescence of the samples was excited by the monochromatic light corresponding to the maximum of the Soret bands: 415 nm for TPPS in ethanol and 413 nm for TPPS in water, and 403 nm for chlorin e4 sodium in water and ethanol. The monochromator bandwidth was 3 nm. The fluorescence quantum yields (ΦF) were calculated using the following equation: […]\nwhere (ΦTPP is the quantum yield of TPPS fluorescence, Sc is the square under the fluorescence spectrum of the chlorin e4 sodium sample, STPP is the square under the fluorescence spectrum of TPPS, and Dc and DTPP are absorbance (optical density) of the chlorin e4 sodium and TPPS respectively at the excitation wavelengths. The obtained results were collated using relative units of intensity of the excited light at the excitation wavelengths. The intensities of the monochromatic light were measured using a calibrated silicon detector from Optical Power Meter System ThorLabs (Karlsfeld, Germany)."}, "[5]": {"tested_on": "naso pharyngeal carcinoma with metastases in the lymph nodes of the left neck and in the lung", "assay": "In vivo studies Example 10: patient, oral chlorin e4 sodium plus laser and LED light", "parameters": "species or system human", "procedure": "A patient with naso pharyngeal carcinoma with metastases in the lymph nodes of the left neck and in the lung, was treated successfully. The treatment consisted of five courses. For each course, five doses of 62.5-187.5 mg chlorin e4 sodium were administered orally over the course of eight days. 24-48 hours after each oral dose of chlorin e4 sodium, the patient was treated with laser and LED light having a wavelength of 660 nm and 760 nm. Additionally an interstitial light treatment using a fine needle was performed on the left lung to a tumour that was large in size with an optical fibre laser having a wavelength of 660 nm and 760 nm."}, "[6]": {"conditions": "group A (32 patients): chlorin e4 sodium 2 mg/kg inhalation and oral + interstitial laser, group B (34 patients): cisplatin 20 mg iv + radiotherapy"}},
  "note": "“Also recorded” adds a separate entry of the source.",
  "data": [
    {"smiles": "C=Cc1c(C)c2cc3nc(c(C)c4[nH]c(cc5nc(cc1[nH]2)C(C)=C5CC)c(C)c4C(=O)O)[C@@H](CCC(=O)O)[C@@H]3C", "note": "[chlorin e4 sodium]", "values": [
      {"measurement": "Patient status", "setting": "[1]; 10 months after starting, seven months after completion of treatment", "value": "alive and well"},
      {"measurement": "Response of the lungs (PET/CT)", "setting": "[1]; before and after two courses", "value": "many tumours disappearing and the remaining tumours showing no or low metabolic activity"},
      {"measurement": "Side effects", "setting": "[1]; two courses", "value": "no side effects"},
      {"measurement": "One year survival rate", "setting": "[2]; [6]", "value": 93.75, "unit": "%"},
      {"measurement": "Two years survival rate", "setting": "[2]; [6]", "value": 68.75, "unit": "%"},
      {"measurement": "Combined complete and partial remission rate", "setting": "[2]; group A: chlorin e4 sodium 2 mg/kg + interstitial laser, group B: cisplatin 20 mg iv + radiotherapy", "value": 56.20, "unit": "%"},
      {"measurement": "Response in the pancreatic area (PET/CT)", "setting": "[3]; before and after three courses", "value": "improvements and a good treatment response"},
      {"measurement": "Pain", "setting": "[3]; three courses", "value": "suffered less pain"},
      {"measurement": "Photosensitive reaction", "setting": "[3]; three courses", "value": "no photosensitive reaction"},
      {"measurement": "CT scan finding", "setting": "lung cancer", "value": "complete recovery from lung cancer"},
      {"measurement": "Fluorescence quantum yield (ranking among solvents)", "setting": "[4]; SDS containing water", "value": "slightly less"},
      {"measurement": "Fluorescence quantum yield (ranking among solvents)", "setting": "[4]; ethanol", "value": "highest"},
      {"measurement": "Fluorescence quantum yield (ranking among solvents)", "setting": "[4]; water without SDS", "value": "smallest; also recorded: still high"},
      {"measurement": "Response (PET/CT)", "setting": "[5]; five courses, interstitial light on left lung", "value": "very good treatment response"},
      {"measurement": "Patient status", "setting": "[5]; one year and five months after starting, two months after completion of treatment", "value": "alive and well"}
    ]}
  ]
}
